Source: PubChem BioAssay (NCI)
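Cultured in 96-well plates, cells were exposed to test compound for 48 hours across five concentrations. TGI: concentration producing complete growth inhibition.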

Columns and labels:
Assay in all cases: NCI anticancer screen, dose series, 48 h
786-0 renal = tested on: 786-0 renal
A498 renal = tested on: A498 renal
A549 NSCLC = tested on: A549 NSCLC
ACHN renal = tested on: ACHN renal
BT-549 breast = tested on: BT-549 breast
CAKI-1 renal = tested on: CAKI-1 renal
CCRF-CEM leukemia = tested on: CCRF-CEM leukemia
COLO 205 colon = tested on: COLO 205 colon
DU-145 prostate = tested on: DU-145 prostate
EKVX NSCLC = tested on: EKVX NSCLC
HCC-2998 colon = tested on: HCC-2998 colon
HCT-116 colon = tested on: HCT-116 colon
HCT-15 colon = tested on: HCT-15 colon
HOP-62 NSCLC = tested on: HOP-62 NSCLC
HOP-92 NSCLC = tested on: HOP-92 NSCLC
HS 578T breast = tested on: HS 578T breast
HT29 colon = tested on: HT29 colon
IGROV1 ovarian = tested on: IGROV1 ovarian
KM12 colon = tested on: KM12 colon
LOX IMVI melanoma = tested on: LOX IMVI melanoma
M14 melanoma = tested on: M14 melanoma
MALME-3M melanoma = tested on: MALME-3M melanoma
MCF7 breast = tested on: MCF7 breast
MDA-MB-231 breast = tested on: MDA-MB-231 breast
MDA-MB-435 = tested on: MDA-MB-435
MDA-N = tested on: MDA-N
NCI-H23 lung = tested on: NCI-H23 lung
NCI-H460 lung = tested on: NCI-H460 lung
NCI-H522 lung = tested on: NCI-H522 lung
NCI/ADR-RES ovarian = tested on: NCI/ADR-RES ovarian
OVCAR-3 ovarian = tested on: OVCAR-3 ovarian
OVCAR-4 ovarian = tested on: OVCAR-4 ovarian
OVCAR-5 ovarian = tested on: OVCAR-5 ovarian
OVCAR-8 ovarian = tested on: OVCAR-8 ovarian
PC-3 prostate = tested on: PC-3 prostate
RPMI-8226 leukemia = tested on: RPMI-8226 leukemia
RXF 393 renal = tested on: RXF 393 renal
SF-268 CNS = tested on: SF-268 CNS
SF-295 CNS = tested on: SF-295 CNS
SF-539 CNS = tested on: SF-539 CNS
SK-MEL-2 melanoma = tested on: SK-MEL-2 melanoma
SK-MEL-28 melanoma = tested on: SK-MEL-28 melanoma
SK-MEL-5 melanoma = tested on: SK-MEL-5 melanoma
SK-OV-3 ovarian = tested on: SK-OV-3 ovarian
SN12C renal = tested on: SN12C renal
SNB-19 CNS = tested on: SNB-19 CNS
SNB-75 CNS = tested on: SNB-75 CNS
SR leukemia = tested on: SR leukemia
SW-620 colon = tested on: SW-620 colon
T-47D breast = tested on: T-47D breast
TK-10 renal = tested on: TK-10 renal
U251 CNS = tested on: U251 CNS
UACC-257 melanoma = tested on: UACC-257 melanoma
UACC-62 melanoma = tested on: UACC-62 melanoma
UO-31 renal = tested on: UO-31 renal
HL-60(TB) leukemia = tested on: HL-60(TB) leukemia
K-562 leukemia = tested on: K-562 leukemia
MOLT-4 leukemia = tested on: MOLT-4 leukemia
NCI-H226 lung = tested on: NCI-H226 lung

## Cc1cc(C)n(CN(Cn2nc(C)cc2C)C2CCCCC2)n1
786-0 renal
  TGI: 48.9 µM
A498 renal
  TGI: > 100 µM
A549 NSCLC
  TGI: > 100 µM
ACHN renal
  TGI: 51.9 µM
BT-549 breast
  TGI: 49.6 µM
CAKI-1 renal
  TGI: 97.7 µM
CCRF-CEM leukemia
  TGI: 44.8 µM
COLO 205 colon
  TGI: 32 µM
DU-145 prostate
  TGI: 62.2 µM
EKVX NSCLC
  TGI: 84.5 µM
HCC-2998 colon
  TGI: 27.9 µM
HCT-116 colon
  TGI: 45.6 µM
HCT-15 colon
  TGI: 42.6 µM
HOP-62 NSCLC
  TGI: 69.6 µM
HOP-92 NSCLC
  TGI: 87.5 µM
HS 578T breast
  TGI: > 100 µM
HT29 colon
  TGI: 42.4 µM
IGROV1 ovarian
  TGI: 50.1 µM
KM12 colon
  TGI: 49.2 µM
LOX IMVI melanoma
  TGI: 46.3 µM
M14 melanoma
  TGI: 36.8 µM
MALME-3M melanoma
  TGI: 51.9 µM
MCF7 breast
  TGI: > 100 µM
MDA-MB-231 breast
  TGI: 64.2 µM
MDA-MB-435
  TGI: 45.4 µM
MDA-N
  TGI: 34.8 µM
NCI-H23 lung
  TGI: 56.8 µM
NCI-H460 lung
  TGI: > 100 µM
NCI-H522 lung
  TGI: 43.8 µM
NCI/ADR-RES ovarian
  TGI: 42.5 µM
OVCAR-3 ovarian
  TGI: 56.9 µM
OVCAR-4 ovarian
  TGI: 67.9 µM
OVCAR-5 ovarian
  TGI: 53.8 µM
OVCAR-8 ovarian
  TGI: 58.4 µM
PC-3 prostate
  TGI: 60 µM
RPMI-8226 leukemia
  TGI: 38.9 µM
RXF 393 renal
  TGI: 50.9 µM
SF-268 CNS
  TGI: 91.3 µM
SF-295 CNS
  TGI: > 100 µM
SF-539 CNS
  TGI: 29.1 µM
SK-MEL-2 melanoma
  TGI: 36.7 µM
SK-MEL-28 melanoma
  TGI: 42.5 µM
SK-MEL-5 melanoma
  TGI: > 100 µM
SK-OV-3 ovarian
  TGI: > 100 µM
SN12C renal
  TGI: 66.3 µM
SNB-19 CNS
  TGI: > 100 µM
SNB-75 CNS
  TGI: 76.8 µM
SR leukemia
  TGI: > 100 µM
SW-620 colon
  TGI: 92.7 µM
T-47D breast
  TGI: 76.2 µM
TK-10 renal
  TGI: > 100 µM
U251 CNS
  TGI: 83.6 µM
UACC-257 melanoma
  TGI: 78.4 µM
UACC-62 melanoma
  TGI: 41.7 µM
UO-31 renal
  TGI: 52.4 µM

## CCOC(=O)C(CS)NC(=O)CCCCCCCC(=O)NC(CS)C(=O)OCC (configuration not stated)
786-0 renal
  TGI: > 100 µM
A498 renal
  TGI: > 100 µM
A549 NSCLC
  TGI: > 100 µM
ACHN renal
  TGI: > 100 µM
BT-549 breast
  TGI: > 100 µM
CAKI-1 renal
  TGI: > 100 µM
CCRF-CEM leukemia
  TGI: > 100 µM
COLO 205 colon
  TGI: > 100 µM
DU-145 prostate
  TGI: > 100 µM
EKVX NSCLC
  TGI: > 100 µM
HCC-2998 colon
  TGI: > 100 µM
HCT-116 colon
  TGI: > 100 µM
HCT-15 colon
  TGI: > 100 µM
HL-60(TB) leukemia
  TGI: > 100 µM
HOP-62 NSCLC
  TGI: > 100 µM
HOP-92 NSCLC
  TGI: > 100 µM
HS 578T breast
  TGI: > 100 µM
HT29 colon
  TGI: > 100 µM
IGROV1 ovarian
  TGI: > 100 µM
K-562 leukemia
  TGI: > 100 µM
KM12 colon
  TGI: > 100 µM
LOX IMVI melanoma
  TGI: > 100 µM
M14 melanoma
  TGI: > 100 µM
MALME-3M melanoma
  TGI: > 100 µM
MCF7 breast
  TGI: > 100 µM
MDA-MB-231 breast
  TGI: > 100 µM
MDA-MB-435
  TGI: > 100 µM
MDA-N
  TGI: > 100 µM
MOLT-4 leukemia
  TGI: > 100 µM
NCI-H226 lung
  TGI: > 100 µM
NCI-H23 lung
  TGI: > 100 µM
NCI-H460 lung
  TGI: > 100 µM
NCI-H522 lung
  TGI: > 100 µM
NCI/ADR-RES ovarian
  TGI: > 100 µM
OVCAR-3 ovarian
  TGI: > 100 µM
OVCAR-4 ovarian
  TGI: > 100 µM
OVCAR-5 ovarian
  TGI: > 100 µM
OVCAR-8 ovarian
  TGI: > 100 µM
PC-3 prostate
  TGI: > 100 µM
RPMI-8226 leukemia
  TGI: > 100 µM
SF-295 CNS
  TGI: > 100 µM
SF-539 CNS
  TGI: > 100 µM
SK-MEL-2 melanoma
  TGI: > 100 µM
SK-MEL-28 melanoma
  TGI: > 100 µM
SK-MEL-5 melanoma
  TGI: > 100 µM
SK-OV-3 ovarian
  TGI: > 100 µM
SN12C renal
  TGI: > 100 µM
SNB-19 CNS
  TGI: > 100 µM
SNB-75 CNS
  TGI: > 100 µM
SR leukemia
  TGI: > 100 µM
SW-620 colon
  TGI: > 100 µM
T-47D breast
  TGI: > 100 µM
TK-10 renal
  TGI: > 100 µM
U251 CNS
  TGI: > 100 µM
UACC-257 melanoma
  TGI: > 100 µM
UACC-62 melanoma
  TGI: > 100 µM
UO-31 renal
  TGI: > 100 µM
